One compound from patent US20210113540A1, “TREATMENT AGENT AND PHARMACEUTICAL COMPOSITION FOR GLIOMA” (NATIONAL UNIVERSITY CORPORATION HOKKAIDO UNIVERSITY, priority 2018, published 2021) can be followed below.

For data set [1], the system named is Glioma-initiating cell E16R. The data set can be described thus: Cell proliferation test (MTT) on GICR strain E16R. The format is cell-based. Particulars: Homo sapiens, 72 h, MTT after 3 days. As for the experimental part:
(§1) GIC and GICR strain: Cell growth test was performed using E6, E6R, E16, and E16R (Stem Cells. 2016 August; 34(8): 2016-25.).
(§2) Cell culture solutions were obtained by mixing a medium prepared by adding various compounds, bFGF (Peprotech, 100-18B) and EGF (Peprotech, 100-15) to DMEM/Ham's F-12 medium (SIGMA, D8062) and a medium prepared by adding FCS (Hyclone, SH30910.03) to DMEM medium (Nacalai tesque, 08458-45) to a concentration of 10% for use.
(§3) Each compound adjusted to a predetermined concentration was dispensed into a 96-well plate (Falcon, 353072) at 80 μL/well, and E6 cells and E6R cells were seeded on the 96-well plate at 1000 cells/80 μL/well. After 3 days, 10 μL of an MTT reagent (DOJINDO, 341-01823) was added, the cells were incubated at 37° C. for 3 hours, the culture solution was removed, and 100 μL of DMSO was added. The absorbance at 570 nm was measured using Bio-Rad iMark (Bio-Rad, 168-1130JA). The growth inhibition rate at each test compound concentration was calculated by the following formula using the absorbance as an index of the viable cell count.
(§4) The growth inhibition rate at each compound concentration was determined, and the 50% growth inhibition concentration GI50 (μmol/L)] was calculated using XLfit. Growth inhibition rate (%)=(Amount of luminescence from wells supplemented with test compound)/(Amount of luminescence from wells supplemented with DMSO)×100

Another data set concerns GICs. The data set can be described thus: Neutralization of GIC-damaging activity by addition of UDP-GlcNAc. The format is cell-based, human. Particulars: UDP-GlcNAc added after the chemical, FIG. 4. As for the experimental part:
When UDP-GlcNAc was added after the chemical was added to GIC, reduced SOX2 expression in GICs and the cytotoxic activity of Compound 8 on GICs were neutralized (FIGS. 3 and 4). SOX2 K75A in which lysine 75 involved in the binding of CRM1 and SOX2 was substituted with alanine and SOX2 S248A in which the 0-GlcNAcylation target serine 248 was substituted with alanine were prepared, thereby establishing GICs that constitutively express these SOX2 mutants and wild-type SOX2 (SOX2 wt). After treatment with Compound 8, the localization of SOX2 was examined by immunostaining using an anti-FLAG antibody, and the viability of GICs expressing these mutants was examined by MTT assay (FIG. 5). In the presence of Compound 8, SOX2 K75A was present in the nucleus and partially neutralized the cytotoxic activity of Compound 8. SOX2 S248A was not retained in the nucleus by treatment with Compound 8, and no inhibitory effect on cytotoxic activity was observed. […] The SOX2/DAPI positive rate was as follows: GIC (E6): Control: 0%, SOX2 wt: 36±5%, SOX2 K75A: 63±5%, SOX2 S248A: 18±2%; GIC (E16): Control: 0%, SOX2 wt: 22±4%, SOX2 K75A: 58±6%, SOX2 S248A: 15±3%. Error bar: ±SD. Statistical processing is t-test. *P<0.05, **P<0.01, ***P<0.001. GIC was cultured for 2 days with Compound 8 (10 μmol/L) alone or together with UDP-GlcNAc (1 mmol/L), and immunostaining was performed for SOX2 and NESTIN. […]

The subject of a further data set is E6 cells. The data set can be described thus: Quantitative determination of metabolites by LC-MS/MS in E6 cells. More on the design: dose or concentration left out as unconfirmed. Particulars: 24 hours, compared to control DMSO-treated group. Type of data set: cell-based, human. Here is the method:
(§5) Compound 8 was added to GICs (E6, E16) at […] and treated for 24 hours. Cells were washed with a 5% mannitol solution, 70% ice-cold methanol was added, and metabolites were extracted. […] In addition, the amount of orotic acid was decreased in E16 cells.

In data set [2] the test system is Glioma-initiating cell E16. The experiment in a line: Cell proliferation test (MTT) on GIC strain E16. Type of data set: cell-based. The following applies: Homo sapiens, 72 h, MTT after 3 days. Here is the method:
as §1, §2, §3, §4

The next data set deals with T1, recombinant human DHODH (Homo sapiens, UniProt Q02127).
T1 construct: DHODH, 31-395aa, Human, His tag, E. coli, ATGP1615; His tag; purchased ATGen ATGP1615; host or cells: E. coli
T1 sequence (Q02127 31-395): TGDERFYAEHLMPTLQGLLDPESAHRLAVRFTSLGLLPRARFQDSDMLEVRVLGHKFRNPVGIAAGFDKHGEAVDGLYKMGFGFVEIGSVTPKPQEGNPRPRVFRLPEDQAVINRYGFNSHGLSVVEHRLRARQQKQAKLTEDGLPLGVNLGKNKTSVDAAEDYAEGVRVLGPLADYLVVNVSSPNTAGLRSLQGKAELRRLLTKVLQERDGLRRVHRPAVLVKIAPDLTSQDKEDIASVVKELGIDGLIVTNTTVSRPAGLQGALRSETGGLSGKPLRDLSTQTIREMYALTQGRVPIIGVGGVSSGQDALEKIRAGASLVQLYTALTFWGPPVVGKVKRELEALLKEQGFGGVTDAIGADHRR
The data set can be described thus: DHODH enzyme assay (DCIP quenching). The format is biochemical. The following applies: pH 8.0, DCIP absorbance 600 nm, 50 minutes; read-out: DHODH enzyme inhibition IC50. Here is the method:
For DHODH enzyme assay, “Benjamin Bader, Wolfgang Knecht, Markus Fries, and Monika Löffler. Expression, Purification, and Characterization of Histidine-Tagged Rat and Human Flavoenzyme Dihydroorotate Dehydrogenase. Protein Expression and Purification, 1998, 13, 414-422” was referred to.
DHODH activity was evaluated using an enzyme assay system that couples with an assay in a blue-coloring dye 2,6-dichlorophenol indophenol (DCIP, MP BIOMEDICALS, MP150118) quenching assay. Purified recombinant human DHODH (DHODH, 31-395aa, Human, His tag, E. coli, ATGP1615) was purchased from ATGen. […] Enzyme activity was assessed by measuring the decrease in DCIP absorbance (600 nm) for 50 minutes using an Envision plate-reading spectrophotometer (PerkinElmer Co., Ltd.). […]
Enzyme reaction inhibition rate (%)=(Amount of luminescence from wells supplemented with test compound)/(Amount of luminescence from wells supplemented with DMSO)×100

In the next data set the test system is GICs (E6, E16). The experiment in a line: Quantitative determination of metabolites by LC-MS/MS in GICs. The following applies: 24 hours. Type of data set: cell-based, human. More on the design: amounts of purine metabolites (ATP, GTP, dATP, dGTP): dose or concentration left out as unconfirmed. As for the experimental part:
as §5

Where two headings read alike, the source gives them in different places.

As a reminder, the IC50 is the concentration that gives 50% inhibition. Regarding `O=C(O)c1cc(C2CC2)cnc1Nc1ccc2c(ccn2-c2ccccc2)c1` [Compound 8, 5-cyclopropyl-2-((1-phenyl-1H-indole-5-yl)amino)nicotinic acid], the GI50 was 490 nmol/L in data set [1] (read-out: GI50 (nmol/L) of Glioma-initiating cell E16R), less than 1000 nmol/L in data set [1] (read-out: GI50 class of Glioma-initiating cell E16R), 434 nmol/L in data set [2] (read-out: GI50 (nmol/L) of Glioma-initiating cell E16) and less than 1000 nmol/L in data set [2] (read-out: GI50 class of Glioma-initiating cell E16). Besides, the “cytotoxic activity of Compound 8 on GICs when UDP-GlcNAc was added” value with GICs is “neutralized”. Further, the “increase of the amount of DHO in E6 cells” value in the data set on E6 cells was found to be 596 fold. For the same compound, at recombinant human DHODH, the IC50 worked out at 8.96 nM. Further, the “amounts of pyrimidine metabolites downstream of orotic acid (UMP, UDP, UTP, CMP, CDP, CTP, dCTP, dTTP)” value in the data set on GICs (E6, E16) (10 M) is listed as “reduced”. Further, the “amounts of purine metabolites (ATP, GTP, dATP, dGTP)” value in the data set on GICs (E6, E16) is “remained unchanged”.
